Data on four compounds can be found in ChEMBL document CHEMBL4251570, “Synthesis and biological evaluation of a novel β-D-2'-deoxy-2'-α-fluoro-2'-β-C-(fluoromethyl)uridine phosphoramidate prodrug for the treatment of hepatitis C virus infection” (Eur J Med Chem, 2018).

SMILES strings stand for the structures. Active and inactive are the calls of the source.

The subject of data set [1] is Mus musculus. The data set can be described thus: Acute toxicity in Kunming mouse assessed as induction of damage to liver at 2 to 4 g/kg, po administered as single dose measured after 15 days. The data set is classed as organism-based. To be noted: in vivo, 360 h.
The test system of data set [2] is Hepatitis C virus. As to the kind of experiment: Antiviral activity against Hepatitis C virus genotype 1b infected in human HuH7 cells after 48 hrs by luciferase reporter gene assay. The format is functional, organism-based, Hepacivirus hominis. The note with it: Huh-7, 48 h. A general note: A reporter such as luciferase makes a cellular process visible.
The test system of data set [3] is Mus musculus. The data set can be described thus: Acute toxicity in Kunming mouse assessed as induction of damage to spleen at 2 to 4 g/kg, po administered as single dose measured after 15 days. The note with it: in vivo, 360 h. The format is organism-based.
The nature of data set [4]: Half life in Sprague-Dawley rat liver assessed as 1-((2R,3R,4R,5R)-3-fluoro-3-(fluoromethyl)-4-hydroxy-5-(hydroxymethyl)tetrahydrofuran-2-yl)pyrimidine-2,4(1H,3H)-dione triphosphate at 50 mg/kg administered via oral gavage by HPLC-MS/MS analysis. The data set is classed as ADME, organism-based. The note with it: in vivo.
Data set [5] in a line: AUC (0 to t) in Sprague-Dawley rat liver assessed as 1-((2R,3R,4R,5R)-3-fluoro-3-(fluoromethyl)-4-hydroxy-5-(hydroxymethyl)tetrahydrofuran-2-yl)pyrimidine-2,4(1H,3H)-dione triphosphate at 50 mg/kg administered via oral gavage by HPLC-MS/MS analysis. The data set is classed as ADME, organism-based. To be noted: in vivo.
A short description of data set [6]: AUC (0 to infinity) in Sprague-Dawley rat liver assessed as 1-((2R,3R,4R,5R)-3-fluoro-3-(fluoromethyl)-4-hydroxy-5-(hydroxymethyl)tetrahydrofuran-2-yl)pyrimidine-2,4(1H,3H)-dione triphosphate at 50 mg/kg administered via oral gavage by HPLC-MS/MS analysis. To be noted: in vivo. Details: dose 50 mg/kg, time infinity, route oral. The data set is classed as ADME, organism-based.

The subject of data set [7] is Mus musculus. The data set can be described thus: Acute toxicity in Kunming mouse assessed as induction of induction of damage to lung at 2 to 4 g/kg, po administered as single dose measured after 15 days. The data set is classed as organism-based. To be noted: in vivo, 360 h.
Data set [8] can be described thus: Cmax in Sprague-Dawley rat liver assessed as 1-((2R,3R,4R,5R)-3-fluoro-3-(fluoromethyl)-4-hydroxy-5-(hydroxymethyl)tetrahydrofuran-2-yl)pyrimidine-2,4(1H,3H)-dione triphosphate at 50 mg/kg administered via oral gavage by HPLC-MS/MS analysis. To be noted: in vivo. On the set-up: dose 50 mg/kg, route oral. The format is ADME, organism-based.
Data set [9] has as its system Hepatitis C virus. The data set can be described thus: Antiviral activity against Hepatitis C virus JFH-1 infected in human HuH7 cells assessed as inhibition of viral RNA replication after 3 days by quantitative real-time RT-PCR analysis. The data set is classed as functional, organism-based. To be noted: for Activity: Hepacivirus hominis; for EC50 / EC90: JFH-1, Huh-7, 72 h. A general note: Real-time PCR tracks product formation cycle by cycle.

Data set [10] can be described thus: Cytotoxicity against human HuH7 cells after 72 hrs by CellTiter 96 AQueous one solution cell proliferation assay. The data set is classed as cell-based, Huh-7.
Data set [11] relates to Hepatitis C virus. As to the kind of experiment: Antiviral activity against Hepatitis C virus genotype 1b expressing NS5B RNA dependent RNA polymerase S282T mutant infected in human HuH7 cells after 48 hrs by luciferase reporter gene assay. The data set is classed as functional, organism-based, Hepacivirus hominis. To be noted: Huh-7, 48 h.
Data set [12] can be described thus: Half life in human liver S9 fraction at 1 mg/ml incubated up to 120 mins at 37 degC by HPLC analysis. The data set is classed as ADME, subcellular.
For data set [13], the system named is Mus musculus. As to the kind of experiment: Acute toxicity in Kunming mouse assessed as induction of observable clinical toxic signs at 2 to 4 g/kg, po administered as single dose measured after 15 days. The format is organism-based. The note with it: in vivo, 360 h.
Data set [14] can be described thus: Half life in simulated intestinal fluid at pH 7.4 at 1 mg/ml incubated up to 24 hrs at 37 degC by HPLC analysis. The format is ADME.
Data set [15] has as its system Hepatitis C virus. As to the kind of experiment: Antiviral activity against Hepatitis C virus JFH-1 infected in human HuH7 cells assessed as inhibition of viral core protein levels at 1 uM by Western blot method. The data set is classed as functional, organism-based. The note with it: Hepacivirus hominis. (A western blot detects proteins with antibodies after separation by electrophoresis.)

Data set [16] in a line: Half life in human plasma at 1 mg/ml incubated up to 24 hrs at 37 degC by HPLC analysis. The data set is classed as ADME, cell-free.
Data set [17] can be described thus: Half life in simulated gastric fluid at pH 1.2 at 1 mg/ml incubated up to 24 hrs at 37 degC by HPLC analysis. The data set is classed as ADME.
Data set [18] concerns Hepatitis C virus. As to the kind of experiment: Antiviral activity against Hepatitis C virus genotype 2a infected in human HuH7 cells after 48 hrs by luciferase reporter gene assay. The format is functional, organism-based, Hepacivirus hominis. To be noted: Huh-7, 48 h.
In data set [19] the test system is Mus musculus. The data set can be described thus: Acute toxicity in Kunming mouse assessed as change in body weight at 2 to 4 g/kg, po administered as single dose measured after 15 days. The format is organism-based. The note with it: in vivo, 360 h.
In data set [20] the test system is Hepatitis C virus. The data set can be described thus: Antiviral activity against Hepatitis C virus genotype 1a infected in human HuH7 cells after 48 hrs by luciferase reporter gene assay. The data set is classed as functional, organism-based, Hepacivirus hominis. The note with it: subtype 1a, Huh-7, 48 h.
The subject of data set [21] is Mus musculus. The data set can be described thus: Acute toxicity in Kunming mouse assessed as induction of damage to kidney at 2 to 4 g/kg, po administered as single dose measured after 15 days. The format is organism-based. To be noted: in vivo, 360 h.
The nature of data set [22]: Tmax in Sprague-Dawley rat liver assessed as 1-((2R,3R,4R,5R)-3-fluoro-3-(fluoromethyl)-4-hydroxy-5-(hydroxymethyl)tetrahydrofuran-2-yl)pyrimidine-2,4(1H,3H)-dione triphosphate at 50 mg/kg administered via oral gavage by HPLC-MS/MS analysis. The data set is classed as ADME, organism-based. The note with it: in vivo.
Data set [23] concerns Mus musculus. The data set can be described thus: Acute toxicity in Kunming mouse assessed as mortality at 2 to 4 g/kg, po administered as single dose measured after 15 days. To be noted: in vivo, 360 h. The data set is classed as organism-based.
For data set [24], the system named is Mus musculus. The data set can be described thus: Acute toxicity in Kunming mouse assessed as induction of damage to heart at 2 to 4 g/kg, po administered as single dose measured after 15 days. The format is organism-based. To be noted: in vivo, 360 h.
Data set [25] in a line: Drug level in Sprague-Dawley rat liver treated with at 50 mg/kg, po 2-(((S)-(((2R,3R,4R,5R)-5-(2,4-dioxo-3,4-dihydropyrimidin-1(2H)-yl)-4-fluoro-4-(fluoromethyl)-3-hydroxytetrahydrofuran-2-yl)methoxy) (phenoxy)phosphoryl)amino) propanoate assessed as compound formation by HPLC-MS/MS analysis. The data set is classed as ADME, organism-based. To be noted: in vivo.

In general, EC50 refers to the concentration needed to bring the measured effect to its halfway point. The term EC90 denotes the concentration needed for an effect of 90%. In general, Cmax refers to the peak of the concentration-time curve. Usually CC50 stands for the concentration that lowers cell viability or growth by half. Read a high CC50 as lower toxicity to the cells. A word on the half-life: it is the time needed for the level to fall by half in the phase considered. In general, Tmax refers to the time from dosing to the highest level. `CC(C)OC(=O)[C@H](C)N[P@](=O)(OC[C@H]1O[C@@H](n2ccc(=O)[nH]c2=O)[C@@](F)(CF)[C@@H]1O)Oc1ccccc1`: the Activity entry was “Non-Toxic” in [1]; “Non-Toxic” in data set [3]; “Non-Toxic” in data set [7]; “Dose-dependent effect” in data set [9]; “Non-Toxic” in data set [13]; “Non-Toxic” in data set [19]. The Activity result in data set [21], in data set [23] and in data set [24] was “Non-Toxic” each time. Also, the EC50 in data set [2] turned out to be 0.24 µM; in [9], 0.18 µM; in data set [11] it was 1.13 µM; in data set [18], 0.54 µM; in data set [20], 0.31 µM. Besides, the EC90 was found to be 0.5 µM in data set [2]; 0.74 µM in data set [9]; 7.7 µM in data set [11]; 3.05 µM in [18]; 1.26 µM in data set [20]. The t1/2 in data set [4] was found to be 3.73 h. In addition, the AUCt in data set [5] turned out to be 14540 ng·h/g. For the same compound, the AUC in data set [6] amounted to 15655 ng·h/g. The Cmax in [8] worked out at 1895 ng/g. In addition, the CC50 at 72 h in data set [10] is more than 1000 µM. In data set [12], this compound gave a half-life of 0.49 h. Moreover, the half-life at 1 mg/ml is more than 24 h in data set [14], 17.3 h in [16] and more than 24 h in data set [17]. The outcome in data set [15] was Active. Moreover, the Tmax in [22] is 5.83 h.

On to `O=c1ccn([C@@H]2O[C@H](COP(=O)(O)OP(=O)(O)OP(=O)(O)O)[C@@H](O)[C@]2(F)CF)c(=O)[nH]1`, for which the Drug metabolism result in data set [25] is “Metabolite_Detected”.

Compound `O=c1ccn([C@@H]2O[C@H](CO)[C@@H](O)[C@]2(F)CF)c(=O)[nH]1` yielded a CC50 at 72 h in data set [10] of more than 1000 µM.

On to `CC(C)OC(=O)[C@H](C)N[P@](=O)(OC[C@H]1O[C@@H](n2ccc(=O)[nH]c2=O)[C@](C)(F)[C@@H]1O)Oc1ccccc1` [SOFOSBUVIR], for which, in data set [9], the Activity entry was “Dose-dependent effect”, the EC50 was 0.27 µM and the EC90 was found to be 0.83 µM. The compound further returned a CC50 at 72 h in [10] of more than 1000 µM.
